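Cells were grown in 96-well plates and exposed to each compound for 48 hours at five concentrations; endpoints were interpolated linearly between bracketing concentrations, or set to the highest concentration if not reached. TGI denotes the concentration required for complete inhibition of growth.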 Where a SMILES comes first, the peptide text is derived from it. [ ]: non-standard residue; d: D form. The star is where a group is joined. ξ: configuration not given here. Propanoyl(3-(4-MeO-Ph)) = COc1ccc(CCC(=O)*)cc1; Thr(3ξ) = CC(O)[C@H](N)C(=O)O; dNMeL = CN[C@H](CC(C)C)C(=O)O; ξLac = CC(O)C(=O)O
Legend:
Test in all cases: NCI anticancer screen, dose series, 48 h
CAKI-1 renal = test system: CAKI-1 renal
DU-145 prostate = test system: DU-145 prostate
HCC-2998 colon = test system: HCC-2998 colon
HCT-15 colon = test system: HCT-15 colon
HOP-92 NSCLC = test system: HOP-92 NSCLC
HS 578T breast = test system: HS 578T breast
HT29 colon = test system: HT29 colon
IGROV1 ovarian = test system: IGROV1 ovarian
MALME-3M melanoma = test system: MALME-3M melanoma
MDA-N = test system: MDA-N
NCI-H23 lung = test system: NCI-H23 lung
NCI/ADR-RES ovarian = test system: NCI/ADR-RES ovarian
OVCAR-5 ovarian = test system: OVCAR-5 ovarian
PC-3 prostate = test system: PC-3 prostate
SNB-75 CNS = test system: SNB-75 CNS
SR leukemia = test system: SR leukemia
U251 CNS = test system: U251 CNS
MOLT-4 leukemia = test system: MOLT-4 leukemia

| Compound | TGI (CAKI-1 renal) [µM] | TGI (DU-145 prostate) [µM] | TGI (HCC-2998 colon) [µM] | TGI (HCT-15 colon) [µM] | TGI (HOP-92 NSCLC) [µM] | TGI (HS 578T breast) [µM] | TGI (HT29 colon) [µM] | TGI (IGROV1 ovarian) [µM] | TGI (MALME-3M melanoma) [µM] | TGI (MDA-N) [µM] | TGI (NCI-H23 lung) [µM] | TGI (NCI/ADR-RES ovarian) [µM] | TGI (OVCAR-5 ovarian) [µM] | TGI (PC-3 prostate) [µM] | TGI (SNB-75 CNS) [µM] | TGI (SR leukemia) [µM] | TGI (U251 CNS) [µM] | TGI (MOLT-4 leukemia) [µM] |
| --- | --- | --- | --- | --- | --- | --- | --- | --- | --- | --- | --- | --- | --- | --- | --- | --- | --- | --- |
| O=c1oc2c/c(=C\c3ccccc3)c(=O)c3cccc1c3-2 | 55.8 | > 100 | > 100 | > 100 | 41.6 | 73.2 | > 100 | 56.7 | 52.7 | 46.1 | > 100 | > 100 | > 100 | > 100 | > 100 | > 100 | 37.2 |  |
| NNC(=O)CCC(NS(=O)(=O)c1ccc(Cl)cc1)C(=O)NN (stereo not drawn) | > 100 | > 100 | > 100 | > 100 | > 100 | > 100 | > 100 | > 100 | > 100 | > 100 | > 100 | > 100 | > 100 | > 100 | > 100 | > 100 | > 100 | > 100 |
| COC(=O)[C@@H](NC(=O)[C@@H](CC(C)C)N(C)C(=O)[C@@H]1CCCN1C(=O)C(C)O)C(C)OC(=O)CCc1ccc(OC)cc1 (stereo partly drawn) (H-[ξLac]P[dNMeL][Thr(3ξ)](Propanoyl(3-(4-MeO-Ph)))-OMe) | > 100 | > 100 | > 100 | > 100 | > 100 | > 100 | > 100 | > 100 | > 100 | > 100 | > 100 | > 100 | > 100 | > 100 | > 100 | > 100 | > 100 | > 100 |
| CSC1(SC)N2Cc3ccccc3N=C2C1(c1ccccc1)c1ccccc1 | > 100 | > 100 | 23.2 | > 100 | > 27.3 | > 82.5 | > 100 | > 100 | 27.6 | > 96.7 | > 100 | > 67 | > 77.9 | > 100 | > 100 | 9.36 | > 58.9 | > 44.9 |
| CCOc1cc2c(cc1O)CC[C@@H]1[C@@H]2CC[C@]2(C)C(OS(=O)OC3CC[C@@H]4[C@H]5CCc6cc(O)c(OCC)cc6[C@@H]5CC[C@@]34C)CC[C@@H]12 (stereo partly drawn) | 26 | 11.5 | 31.9 | 15.3 | > 100 | > 57.3 | > 53.7 | 25.8 | 13.4 | 0.544 | 14 | 23.7 | > 57.8 | 24.9 | 34.4 | > 44 | 1.4 | > 68 |
| CC1=Nc2c(C#N)ncn2N=C(C)C1 | > 100 | > 100 |  |  | > 100 | > 100 | > 100 | > 100 |  | > 100 | > 100 | > 100 | > 100 | > 100 | > 100 | > 100 | > 100 | > 100 |
| CCCC(=O)Nc1cc(/C=C/C(=O)N2CC(CCl)c3c2cc([N+](=O)[O-])c2ccccc32)n(C)c1 (stereo not drawn) | > 100 | > 100 | > 100 | > 100 | > 100 | > 100 | > 100 | > 100 |  | > 100 | > 100 | > 100 | > 100 | > 100 | 97.7 | > 100 | > 100 | > 100 |
| COC(=O)c1c(O)ccc2c1c1c(n2Cc2ccccn2)C(=O)c2ccccc2C1=O | > 100 | > 100 | 35 | > 100 | > 100 | > 100 | 17.4 | > 100 | 89.8 | > 100 | > 100 | > 100 | > 100 | > 100 |  | 64.2 | > 100 | > 100 |
| COc1ccc(-c2nnc(CCCCCCCCc3nnc(-c4ccc(OC)cc4)n3N)n2N)cc1 | > 100 | > 100 | > 100 | > 100 | > 69.1 | > 100 | > 100 | > 100 | > 100 | > 100 | > 100 | > 31.6 | > 100 | > 100 | > 66.4 | > 100 | > 100 | > 100 |
| COc1cccc2c1-c1c(OC)cccc1SS2 | > 100 | > 100 | 49.3 | 33.3 | 36 | > 100 | 36.2 | 41.6 | 52 | 8.15 | 72.8 | > 100 | 40.9 | > 100 |  | 46.4 | 46.8 | 38.1 |
| CC(C)(C)OC(=O)N1Cc2cc(O)ccc2C[C@H]1C(=O)O | > 100 | > 100 | > 100 | > 100 | > 100 | > 100 | > 100 | > 100 | > 100 | > 100 | > 100 | > 100 | > 100 | > 100 | > 100 | > 100 | > 100 | > 100 |
| O=C1c2ccccc2-c2nnc(-c3ccc(Cl)cc3)cc21 | > 10 | > 10 | > 10 | > 10 | > 10 | > 10 | > 10 | > 10 | > 10 | > 10 | > 10 | > 10 | > 10 | > 10 | > 10 | > 10 | > 10 | > 10 |
| CCCCC1(N=[N+]=[N-])C(=O)C2C=CC=C3c4ccccc4N(C1=O)C32 (stereo not drawn) | > 31.6 | > 100 | > 31.6 | > 31.6 | > 10 | 26 | 25.8 | > 31.6 | > 31.6 | > 31.6 | > 31.6 | > 31.6 | > 31.6 | > 31.6 | 23.1 | > 10 | > 31.6 | > 31.6 |
| COC(=O)C(Cc1ccccc1)NC(=O)c1ccc(CNC(=S)NCc2cccc(CNC(=S)NCc3ccccc3)c2)cc1 (stereo not drawn) | > 62.5 | > 62.5 | > 62.5 | > 62.5 | > 62.5 | > 62.5 | > 62.5 | > 62.5 | > 62.5 | > 62.5 | > 62.5 | > 62.5 | > 62.5 | > 62.5 | > 62.5 | > 62.5 | > 62.5 | > 62.5 |
| CCCCCCCCCCCCCCCCCCOc1ccc(/C=C/C2=[N+](CCCl)CCO2)cc1 | > 100 | > 100 |  | > 100 | > 100 | > 100 | > 100 | > 100 | > 100 | > 100 |  | > 100 | > 100 | > 100 | > 100 | > 100 | > 100 | > 100 |
| CCOC(=O)Cn1nnc2cc(Nc3nc4ccccc4nc3C(=O)OCC)ccc21 | > 100 | > 100 | > 100 | > 100 | 50 | > 100 | > 100 | > 100 | > 100 | > 100 | > 100 | > 100 | > 100 | > 100 | 9.39 | > 100 | > 100 | > 100 |
| COP(=O)(OC)c1ccc(NCc2cc(O)ccc2O)cc1 | 34.6 | > 90.5 | 51.6 | 50.2 | 45.5 | > 63.8 | 56.3 | > 67.1 | 39.1 | > 63.2 | > 75.8 | > 84.5 | > 60.1 | > 100 | > 77.7 | > 83.4 | > 72.1 | > 86.3 |
| Cc1cc2c(cc1-c1cc3c(cc1C)C(C(C)C)=C(O)C(=O)/C3=C\Nc1c(C)n(C)n(-c3ccccc3)c1=O)/C(=C/Nc1c(C)n(C)n(-c3ccccc3)c1=O)C(=O)C(O)=C2C(C)C | > 100 | > 100 |  | > 100 | > 100 | > 100 | > 100 | > 100 | > 100 | > 100 | > 100 | > 100 | > 100 | > 100 | > 100 | > 100 | > 100 | > 100 |
| CCCCCC(O)(CCCCC)CCCCCCCCC1=C(O)c2ccccc2C(=O)C1=O | > 56.1 | 25.7 | 30.5 | 15.6 | 33.6 | 54.5 | 27.9 | 26.4 | 28.6 | 31.3 | 21.9 | 21.8 | 46.1 | 24.6 | > 80.2 | 13.9 | 14.5 | 12.4 |
| COc1ccc(N2C(N)=C(C#N)C(C#N)(C#N)C2c2cccc([N+](=O)[O-])c2)cc1 (stereo not drawn) | 23.4 | 31.7 | 31.8 | 30.3 | 26.2 | 54.6 | 29.1 | 29.7 | 16 | 31.5 | 30.8 | 43.2 | 34.5 | 32.4 | 35.1 | > 66 | 31.7 | 25.7 |
| COc1ccc(S(=O)(=O)Nc2ccc(-c3csc(N4C(=O)/C(=C/c5ccccc5)N=C4c4ccccc4)n3)cc2)cc1Cl | > 100 | 86.8 |  | 49.5 | 69.7 | > 100 | > 100 | > 100 | > 100 | > 100 | 54.8 | > 100 | > 100 | > 100 | > 100 | > 100 | 78 | > 100 |
| COc1ccc2oc(=Nc3ccc(F)cc3)c(C(N)=O)cc2c1 | > 100 | > 100 | > 100 | > 100 | 95.5 | > 100 | > 100 | > 100 | > 100 | > 100 | > 100 | > 100 | > 100 | > 100 | 29.5 | > 100 | > 100 | > 100 |
| CCNc1cc2c3c(c1)CCCN3CCC2 | > 100 | > 100 | 70.8 | 40.5 | 44.4 | 78.5 | 21.6 | 31.5 | 44.6 | 10.9 | 21.9 | 52.2 | 45.1 | 35.6 | 32.7 | 27.4 | 24.7 | 50.6 |
| COc1ccc(-c2nnc(-c3ccncc3)o2)cc1 | > 100 | > 100 |  | > 100 | > 100 | > 100 | > 100 | > 100 | > 100 | > 100 | > 100 | > 100 | > 100 | > 100 | > 100 | > 100 | > 100 | > 100 |
| O=C(O)CN(CC(=O)O)Cc1ccn(-c2cccc(-n3ccc(CN(CC(=O)O)CC(=O)O)n3)n2)n1 | > 100 | > 100 | > 100 | > 100 | > 100 | > 100 | > 100 | > 100 | > 100 | > 100 | > 100 | > 100 | > 100 | > 100 | > 100 | > 100 | > 100 | > 100 |
